Patent publication US7119182B1 (The Regents of the University of California, priority 1991, dated 2006)
Square brackets hold non-standard residues; d marks the D form. Ends that are not written are not given here. Peptide text beside a SMILES is read from it. * marks the point of attachment. 2Nal = N[C@@H](Cc1ccc2ccccc2c1)C(=O)O; 2Thi = N[C@@H](Cc1cccs1)C(=O)O; Cha = N[C@@H](CC1CCCCC1)C(=O)O; Phg = N[C@H](C(=O)O)c1ccccc1; Aib = CC(C)(N)C(=O)O; X1 = O=C(c1ccccc1S)*; Mpa = O=C(O)CCS

What was measured:
thrombin receptor = molecular target: T1, thrombin receptor (Homo sapiens, UniProt P25116); assay: Platelet activation/aggregation assays in the presence of thrombin, antagonist peptides; assay type: cell-based; details: read-out: IC50 (50% inhibition of activation or aggregation)
T1 construct: In this assay, washed human platelets are prepared by the method of Baenzinger; endogenous in cells; host or cells: washed human platelets
T1 sequence (P25116 22-425): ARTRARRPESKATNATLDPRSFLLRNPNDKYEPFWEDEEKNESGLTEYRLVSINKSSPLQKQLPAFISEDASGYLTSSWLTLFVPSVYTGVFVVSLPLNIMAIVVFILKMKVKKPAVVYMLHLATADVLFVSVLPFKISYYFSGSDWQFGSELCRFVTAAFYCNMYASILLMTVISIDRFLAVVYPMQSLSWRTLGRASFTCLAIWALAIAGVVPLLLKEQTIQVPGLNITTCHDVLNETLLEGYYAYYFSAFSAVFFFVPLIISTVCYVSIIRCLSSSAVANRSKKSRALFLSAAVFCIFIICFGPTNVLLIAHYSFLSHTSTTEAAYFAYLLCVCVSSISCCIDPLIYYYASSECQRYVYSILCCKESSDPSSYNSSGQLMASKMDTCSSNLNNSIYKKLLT
Procedure: Platelet Aggregation: In this assay, washed human platelets are prepared by the method of Baenzinger, M. G., Meth Enzymol (1974) 31:149–155, or as described by Charo, I. F., et al., J Clin Invest (1977) 63:866–873.
Washed platelets are suspended in modified Tyrode's buffer, pH 7.4 with 2 mM magnesium and 1 mM calcium at a concentration of 10^8 platelets/ml.
About 20 μl Chromolume® reagent (Chronolog Corporation, Havertown, Pa.) is added. In addition to measuring aggregation, ATP secretion is assessed. […] Platelet ATP secretion is measured in a lumiaggregometer as luminescence signal. […] Preincubation is not necessary for testing agonists or antagonists which interact directly with the receptor.
Platelet Aggregation Assay Using Microtiter Plates: Thrombin- or agonist-mediated platelet aggregation as measured with washed platelets in 96-well microtiter plates was performed as described (Fratantoni, J. C. et al., Am J Clin Pathol (1990) 94:613–617).

washed human platelets = molecular target: T2, washed human platelets (Homo sapiens, UniProt P25116); details: washed human platelets; for EC50: read-out: EC50 (concentration required to elicit a 50% maximal aggregation)
T2 sequence (P25116 42-425): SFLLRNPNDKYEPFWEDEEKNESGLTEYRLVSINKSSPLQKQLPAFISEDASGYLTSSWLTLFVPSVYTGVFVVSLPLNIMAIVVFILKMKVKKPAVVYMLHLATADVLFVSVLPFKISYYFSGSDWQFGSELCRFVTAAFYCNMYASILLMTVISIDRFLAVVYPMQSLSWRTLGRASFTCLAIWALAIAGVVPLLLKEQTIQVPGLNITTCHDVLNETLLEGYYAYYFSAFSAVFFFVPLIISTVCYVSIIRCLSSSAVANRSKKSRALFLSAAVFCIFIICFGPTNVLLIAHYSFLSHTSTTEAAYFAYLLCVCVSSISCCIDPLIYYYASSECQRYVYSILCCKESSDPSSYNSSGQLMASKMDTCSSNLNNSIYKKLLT
Procedure: Washed human platelets were prepared as described by Baenzinger, N. G., Meth Enz (1974) 31:149–155; and Charo, I. F., et al., J Clin Invest (1977) 63:866–873. Agonist-induced responses were assessed as described above.
Using the platelet aggregation assay described above, the concentration of various peptides required to elicit a 50% maximal aggregation was determined.

IC50 (thrombin receptor) [µM]	EC50 (concentration required to elicit a 50% maximal aggregation) (washed human platelets)	Molecule	further results
80	–	CC(C)C[C@H](NC(=O)[C@H](Cc1ccccc1)NC(=O)CCS)C(=O)N[C@@H](CC(C)C)C(=O)N[C@@H](CCCNC(=N)N)C(=O)N[C@@H](CC(N)=O)C(=O)N1CCC[C@H]1C(=O)N[C@@H](CC(N)=O)C(=O)N[C@@H](CC(=O)O)C(=O)N[C@@H](CCCCN)C(=O)O ([Mpa]FLLRNPNDK-OH)	–
80	–	N=C(N)NCCC[C@H](NC(=O)[C@H](CC1CCCCC1)NC(=O)[C@H](CC1CCCCC1)NC(=O)[C@H](Cc1ccccc1)NC(=O)CCS)C(=O)N[C@@H](CC(N)=O)C(=O)N1CCC[C@H]1C(=O)N[C@@H](CC(N)=O)C(=O)N[C@@H](CC(=O)O)C(=O)N[C@@H](CCCCN)C(=O)N[C@@H](Cc1ccc(O)cc1)C(=O)N[C@@H](CCC(=O)O)C(N)=O ([Mpa]F[Cha][Cha]RNPNDKYE-NH2)	–
50	–	N=C(N)NCCC[C@H](NC(=O)[C@H](CC1CCCCC1)NC(=O)[C@H](CC1CCCCC1)NC(=O)[C@H](Cc1ccccc1)NC(=O)c1ccccc1S)C(=O)N[C@@H](CCCCN)C(=O)N1CCC[C@H]1C(=O)N[C@@H](CC(N)=O)C(=O)N[C@@H](CC(=O)O)C(=O)N[C@@H](CCCCN)C(N)=O [(2-Mba)-F(Cha)(Cha)RKPNDK-NH2] (X1-F[Cha][Cha]RKPNDK-NH2)	–
10	–	CSCCC(=O)N[C@@H](Cc1ccccc1)C(=O)N[C@@H](CC1CCCCC1)C(=O)N[C@@H](CC1CCCCC1)C(=O)N[C@@H](CCCNC(=N)N)C(=O)N[C@@H](CCCCN)C(=O)N1CCC[C@H]1C(=O)N[C@@H](CC(N)=O)C(=O)N[C@@H](CC(=O)O)C(=O)N[C@@H](CCCCN)C(N)=O [(SMeMpr)-F(Cha)(Cha)RKPNDK-NH2] ([Mpa](Me)F[Cha][Cha]RKPNDK-NH2)	–
40	–	C[C@H](NC(=O)[C@H](CCCNC(=N)N)NC(=O)[C@H](CC1CCCCC1)NC(=O)[C@H](CC1CCCCC1)NC(=O)[C@H](Cc1ccccc1)NC(=O)CCS)C(=O)N1CCC[C@H]1C(=O)N[C@@H](CC(N)=O)C(=O)N[C@@H](CC(=O)O)C(=O)N[C@@H](CCCCN)C(N)=O [Mpr-F(Cha) (Cha)RAPNDK-NH2] ([Mpa]F[Cha][Cha]RAPNDK-NH2)	–
> 100	–	N=C(N)NCCC[C@H](NC(=O)[C@H](CC1CCCCC1)NC(=O)[C@H](CC1CCCCC1)NC(=O)[C@H](Cc1ccccc1)NC(=O)CCS)C(=O)N[C@@H](Cc1ccccc1)C(=O)N1CCC[C@H]1C(=O)N[C@@H](CC(N)=O)C(=O)N[C@@H](CC(=O)O)C(=O)N[C@@H](CCCCN)C(N)=O [Mpr-F(Cha) (Cha)RFPNDK-NH2] ([Mpa]F[Cha][Cha]RFPNDK-NH2)	–
50	–	C[C@H](NC(=O)[C@H](CC(=O)O)NC(=O)[C@H](CC(N)=O)NC(=O)[C@@H]1CCCN1C(=O)[C@H](CCCCN)NC(=O)[C@H](CCCNC(=N)N)NC(=O)[C@H](CC1CCCCC1)NC(=O)[C@H](CC1CCCCC1)NC(=O)[C@H](Cc1ccccc1)NC(=O)CCS)C(N)=O [Mpr-F(Cha) (Cha)RKPNDA-NH2] ([Mpa]F[Cha][Cha]RKPNDA-NH2)	–
75	–	C[C@H](NC(=O)[C@H](CC(N)=O)NC(=O)[C@H](CCCNC(=N)N)NC(=O)[C@H](CC1CCCCC1)NC(=O)[C@H](CC1CCCCC1)NC(=O)[C@H](Cc1ccccc1)NC(=O)CCS)C(=O)N[C@@H](CC(N)=O)C(=O)N[C@@H](CC(=O)O)C(=O)N[C@@H](CCCCN)C(N)=O [Mpr-F(Cha) (Cha)RNANDK-NH2] ([Mpa]F[Cha][Cha]RNANDK-NH2)	–
75	–	C[C@H](NC(=O)[C@@H]1CCCN1C(=O)[C@H](CC(N)=O)NC(=O)[C@H](CCCNC(=N)N)NC(=O)[C@H](CC1CCCCC1)NC(=O)[C@H](CC1CCCCC1)NC(=O)[C@H](Cc1ccccc1)NC(=O)CCS)C(=O)N[C@@H](CC(=O)O)C(=O)N[C@@H](CCCCN)C(N)=O [Mpr-F(Cha) (Cha)RNPADK-NH2] ([Mpa]F[Cha][Cha]RNPADK-NH2)	–
> 100	–	C[C@H](NC(=O)[C@H](CC(N)=O)NC(=O)[C@@H]1CCCN1C(=O)[C@H](CC(N)=O)NC(=O)[C@H](CCCNC(=N)N)NC(=O)[C@H](CC1CCCCC1)NC(=O)[C@H](CC1CCCCC1)NC(=O)[C@H](Cc1ccccc1)NC(=O)CCS)C(=O)N[C@@H](CCCCN)C(N)=O [Mpr-F(Cha) (Cha)RNPNAK-NH2] ([Mpa]F[Cha][Cha]RNPNAK-NH2)	–
50	–	N=C(N)NCCC[C@H](NC(=O)[C@H](CC1CCCCC1)NC(=O)[C@H](CC1CCCCC1)NC(=O)[C@H](Cc1ccccc1)NC(=O)CCS)C(=O)N[C@@H](CC(N)=O)C(=O)N1CCC[C@H]1C(=O)N[C@@H](CC(N)=O)C(=O)N[C@@H](CC(=O)O)C(N)=O [Mpr-F(Cha) (Cha)RNPND-NH2] ([Mpa]F[Cha][Cha]RNPND-NH2)	–
–	–	CC(C)C[C@H](NC(=O)[C@H](CC(C)C)NC(=O)[C@H](Cc1cccs1)NC(=O)[C@@H](N)CO)C(=O)N[C@@H](CCCNC(=N)N)C(N)=O [S(Thi)LLR-NH2] (H-S[2Thi]LLR-NH2)	EC50 (washed human platelets): 7.6 µM
–	–	CC(C)C[C@H](NC(=O)[C@H](CC1CCCCC1)NC(=O)[C@H](Cc1ccccc1)NC(=O)[C@@H](N)CO)C(=O)N[C@@H](CCCNC(=N)N)C(N)=O [SF(Cha)LR-NH2] (H-SF[Cha]LR-NH2)	EC50 (washed human platelets): 1.5 µM
–	–	CC(C)C[C@H](NC(=O)[C@H](CC(C)C)N(C)C(=O)[C@H](Cc1ccccc1)NC(=O)[C@@H](N)CO)C(=O)N[C@@H](CCCN=C(N)N)C(N)=O [SF(N-MeLeu)LR-NH2]	EC50 (washed human platelets): > 1000 µM
–	–	CC(C)C[C@H](NC(=O)[C@H](Cc1ccccc1)NC(=O)[C@@H](N)CO)C(=O)N[C@@H](Cc1ccc2ccccc2c1)C(=O)N[C@@H](CCCNC(=N)N)C(=O)N[C@@H](CC(N)=O)C(N)=O [SFL(Nal)RN-NH2] (H-SFL[2Nal]RN-NH2)	EC50 (washed human platelets): 7.5 µM
–	–	CC(C)C[C@H](NC(=O)[C@H](CC(C)C)NC(=O)[C@H](Cc1ccccc1)NC(=O)[C@@H](N)CO)C(N)=O [SFLL-NH2] (H-SFLL-NH2)	EC50 (washed human platelets): 146 µM
–	–	CC(C)C[C@H](NC(=O)[C@H](CC(C)C)NC(=O)[C@H](Cc1ccccc1)NC(=O)[C@@H](N)CO)C(=O)N[C@@H](CCCN=C(N)N)C(N)=O [SFLLR-NH2]	EC50 (washed human platelets): 7.5 µM
–	Inactive	DFLLR [DFLLR-NH2]	–

IC50 (thrombin receptor) [µM]	EC50 (concentration required to elicit a 50% maximal aggregation) (washed human platelets)	Molecule	further results
–	Inactive	FFLLR [FFLLR-NH2]	–
–	Inactive	FLLRNPNDKYEPF	–
–	Inactive	KFLLR [KFLLR-NH2]	–
–	Inactive	S(Phg)LLR-NH2 (S[Phg]LLR-NH2; N-terminus assumed; SMILES CC(C)C[C@H](NC(=O)[C@H](CC(C)C)NC(=O)[C@@H](NC(=O)[C@@H](N)CO)c1ccccc1)C(=O)N[C@@H](CCCNC(=N)N)C(N)=O)	–
–	Inactive	SALLRNPNDKYE	–
–	Inactive	SF(Aib)LRN-NH2 (SF[Aib]LRN-NH2; N-terminus assumed; SMILES CC(C)C[C@H](NC(=O)C(C)(C)NC(=O)[C@H](Cc1ccccc1)NC(=O)[C@@H](N)CO)C(=O)N[C@@H](CCCNC(=N)N)C(=O)N[C@@H](CC(N)=O)C(N)=O)	–
–	Inactive	SF(D-Ala)LR-NH2 (SF[dA]LR-NH2; N-terminus assumed; SMILES CC(C)C[C@H](NC(=O)[C@@H](C)NC(=O)[C@H](Cc1ccccc1)NC(=O)[C@@H](N)CO)C(=O)N[C@@H](CCCNC(=N)N)C(N)=O)	–
–	Inactive	SF(b-Ala)LRN-NH2 (SFXLRN; beta-Ala at position 3; C-terminal amide)	–
–	Inactive	SFDLR [SFDLR-NH2]	–
–	–	SFFLRN-NH2 [SFFLRN-NH2]	EC50 (washed human platelets): 1.5 µM
–	–	SFLAR-NH2 [SFLAR-NH2]	EC50 (washed human platelets): 146 µM
–	Inactive	SFLARNPNDKYE	–
–	Inactive	SFLER [SFLER-NH2]	–
–	Inactive	SFLLDN [SFLLDN-NH2]	–
–	–	SFLLRNPN	EC50 (washed human platelets): 7.6 µM
–	Inactive	SFLLRNPNDYKE	–
–	Inactive	SFLPR [SFLPR-NH2]	–
–	Inactive	SLLLR [SLLLR-NH2]	–
